Data on 18 compounds can be found in EP0931078B1, “NOVEL TRICYCLIC PIPERIDINYL COMPOUNDS USEFUL AS INHIBITORS OF FARNESYL-PROTEIN TRANSFERASE” (SCHERING CORPORATION, priority 1996, dated 1998).

This assay addresses T1, partially purified rat brain famesyl protein transferase (FPT) (Rattus norvegicus, UniProt Q02293+Q04631).
T1 construct: partially purified rat brain famesyl protein transferase (FPT); from tissue; host or cells: rat brain
The assay can be described thus: In vitro enzyme assay: inhibition of Ras-CVLS farnesylation by farnesyl protein transferase (FPT). In kind it is biochemical. The procedure: • 1. In vitro enzyme assays: FPT IC50 (inhibition of famesyl protein transferase, in vitro enzyme assay) are determined by the methods disclosed in […] or WO 95/10516. […] Cell-based assay. COS IC50 values refer to the COS cells activity inhibition of Ras processing, are determined by the methods disclosed in […] or WO 95/10516.

Setting [1] is: unit printed as uM (Examples 49-54).

Structures are written as SMILES. Read-outs that look alike come from different tables or passages of the source.

T1 sequence (Q02293 whole entry, one chain of several): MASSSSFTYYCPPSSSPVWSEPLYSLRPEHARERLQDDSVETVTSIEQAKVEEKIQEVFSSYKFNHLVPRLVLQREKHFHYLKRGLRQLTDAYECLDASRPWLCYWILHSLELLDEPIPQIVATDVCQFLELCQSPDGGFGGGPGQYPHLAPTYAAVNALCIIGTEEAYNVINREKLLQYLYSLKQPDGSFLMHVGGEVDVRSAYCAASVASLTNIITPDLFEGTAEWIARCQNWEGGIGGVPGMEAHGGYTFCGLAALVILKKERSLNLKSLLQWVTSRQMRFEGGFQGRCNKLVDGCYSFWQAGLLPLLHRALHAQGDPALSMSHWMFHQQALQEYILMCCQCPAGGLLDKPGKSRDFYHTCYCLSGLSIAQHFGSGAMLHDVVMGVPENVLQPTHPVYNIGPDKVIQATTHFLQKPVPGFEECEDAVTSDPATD

Compound `O=C(NCc1ccccn1)C1CCN(C2c3ccc(Cl)cc3CCc3cc(Br)cnc32)CC1` (stereo not drawn) [Example 5, 1-(3-Bromo-8-chloro-6,11-dihydro-5H-benzo[5,6]cyclohepta[1,2-b]pyridin-11-yl)-N-(2-pyridinyimethyl)-4-piperidinecarboxamide] had an IC50 of 1.8 µM. For the compound `O=C(NC1CCNCC1)C1CCN(C2c3ccc(Cl)cc3CCc3cc(Br)cnc32)CC1` (stereo not drawn) [Example 7 Step B, 1-(3-Bromo-8-chloro-6,11-dihydro-5H-benzo[5,6]cyclohepta[1,2-b]pyridin-11-yl)-N-(4-piperidinyl)-4-piperidinecarboxamide], the inhibition at 0.39 µM (read-out: FPT Inhibition) was 8.75%. Turning to `O=C(NCC1CCNCC1)C1CCN(C2c3ccc(Cl)cc3CCc3cc(Br)cnc32)CC1` (stereo not drawn) [Example 8 Step B, 1-(3-Bromo-8-chloro-6,11-dihydro-5H-benzo[5,6]cyclohepta[1,2-b]pyridin-11-yl)-N-(4-piperidinylmethyl)-4-piperidinecarboxamide], the inhibition at 0.38 µM (read-out: FPT Inhibition) was determined as 12%.

Compound `NC(=O)NCC1CCN(C(=O)C2CCN(C3c4ccc(Cl)cc4CCc4cc(Br)cnc43)CC2)CC1` (stereo not drawn) [Example 9, 1-[1-(3-Bromo-8-chloro-6,11-dihydro-5H-benzo[5,6]cyclohepta[1,2-b]pyridin-11-yl)-4-piperidinylcarbonyl]-4-[(1-aminomethanamido)methyl]piperidine] came in with an IC50 of 0.66 µM.

Take `O=C(NCc1cccnc1)C1CCCN(C2c3ccc(Cl)cc3CCc3cc(Br)cnc32)C1` (stereo not drawn) [Example 10, 1-(8-chloro-3-bromo-5,6-dihydro-11H-benzo[5,6]-cyclohepta[1,2-b]pyridin-11-yl)piperidine-3-(N-3-pyridylmethylamino)carboxamide]: inhibition was half-maximal at 0.21 µM (IC50). Still for that read-out and setting: then `O=C(Nc1cccnc1)C1CCCN(C2c3ccc(Cl)cc3CCc3cc(Br)cnc32)C1` (stereo not drawn) [Example 11, 1-(3-bromo-8-chloro-6,11-dihydro-5H-benzo[5,6]cyclohepta [1,2-b]pyridin-11-yl)-N-(3-pyridinyl)-3-piperidinecarboxamide], with 0.065 µM; and `O=C(NCc1cccnc1)C1CCCN(C2c3ncc(Br)cc3CCc3cc(Cl)cc(Br)c32)C1` (stereo not drawn) [Example 16, 1-(3,10-Dibromo-8-chloro-6,11-dihydro-5H-benzo[5,6]cyclohepta[1,2-b]pyridin-11-yl)-N-(3-pyridinylmethyl)-3-piperidinecarboxamide], with 0.027 µM.

Regarding `O=C(CC1CCCN(C2c3ccc(Cl)cc3CCc3cc(Br)cnc32)C1)NCc1cccnc1` (stereo not drawn) [Example 18, 1-(3-Bromo-8-chloro-6,11-dihydro-5H-benzo[5,6]cyclohepta[1,2-b]pyridin-11-yl)-N-(3-pyridinylmethyl)-3-piperidineacetamide], the inhibition at 1.1 µM (read-out: FPT Inhibition) came out at 9%.

Turning to `O=C(CC1CCCN(C2c3ccc(Cl)cc3CCc3cc(Br)cnc32)C1)Nc1cccnc1` (stereo not drawn) [Example 19, 1-(3-Bromo-8-chloro-6,11-dihydro-5H-benzo[5,6]cyclohepta[1,2-b]pyridin-11-yl)-N-(3-pyridinyl)-3-piperidineacetamide], the inhibition at 1.1 µM (read-out: FPT Inhibition) turned out to be 15%. `O=C(CC1CCN(C2c3ccc(Cl)cc3CCc3cc(Br)cnc32)CC1)NCc1cccnc1` (stereo not drawn) [Example 43, 1-(3-Bromo-8-chloro-6,11-dihydro-5H-benzo[5,6]cyclohepta[1,2-b]pyridin-11-yl)-N-(3-pyridylmethyl)-4-piperidineacetamide]: for the setting “read-out: FPT INH”, the inhibition at 0.22 µM is 43%. `O=C(CCC1CCN(C2c3ccc(Cl)cc3CCc3cc(Br)cnc32)CC1)NCc1cccnc1` (stereo not drawn) [Example 44, 1-(3-Bromo-8-chloro-6,11-dihydro-5H-benzo[5,6]cyclohepta[1,2-b]pyridin-11-yl)-N-(3-pyridylmethyl)-4-piperidinepropanamide]: the inhibition at 0.35 µM (read-out: FPT INH) amounted to 39%. `O=C(CC1CCN(C2c3ncc(Br)cc3CCc3cc(Cl)cc(Br)c32)CC1)NCc1cccnc1` (stereo not drawn) [Example 45, 1-(8-Chloro-3,10-dibromo-6,11-dihydro-5H-benzo[5,6]cycloheptal[1,2-b]pyridin-11-yl)-N-(3-pyridylmethyl)-4-piperidineacetamide]: the IC50 came to 0.042 µM. As to `O=C(NC1CC1)[C@@H]1CCCN(C2c3ncc(Br)cc3CCc3cc(Cl)cc(Br)c32)C1` (stereo partly drawn) [Example 49, N-cyclopropyl-1-(3,10-dibromo-8-chloro-6,11-dihydro-5H-benzo[5,6]cyclohepta[1,2-b]pyridin-11-yl)-3-piperidinecarboxamide], under setting [1], the IC50 was found to be 0.58 µM.

On to `CNC(=O)[C@@H]1CCCN(C2c3ncc(Br)cc3CCc3cc(Cl)cc(Br)c32)C1` (stereo partly drawn) [Example 50, 1-(3,10-Dibromo-8-chloro-6,11-dihydro-5H-benzo[5,6]cyclohepta[1,2-b]pyridin-11-yl)-N-methyl-3-piperidinecarboxamide], for which half-maximal inhibition under setting [1] (IC50) required 0.96 µM. On the same count and under the same terms, the result for `O=C(NCCc1cccnc1)[C@@H]1CCCN(C2c3ncc(Br)cc3CCc3cc(Cl)cc(Br)c32)C1` (stereo partly drawn) [Example 52, 1-(3,10-Dibrorno-8-chforo-6,11-dihydro-5H-benzo[5,6]cyclohepta[1,2-b]pyridin-11-yl)-N-[2-(3-pyridinyl)ethyl]-3-piperidinecarboxamide] reads 0.081 µM. The same measure, in the same setting: the result for `CN(C)CC(=O)N1CCC(CNC(=O)[C@@H]2CCCN(C3c4ncc(Br)cc4CCc4cc(Cl)cc(Br)c43)C2)CC1` (stereo partly drawn) [Example 53, 1-(3,10-Dibromo-8-chloro-6,11-dihydro-5H-benzo[5,6]cyclohepta[1,2-b]pyridin-11-yl)-N-[[1-[(dimethylamino)acetyl]-4-piperidinyl]methyl]-3-piperidinecarboxamide] reads 0.11 µM; that for `O=C(NCCCN1CCCC1=O)C1CCCN(C2c3ncc(Br)cc3CCc3cc(Cl)cc(Br)c32)C1` (stereo not drawn) [Example 54, 1-(3,10-Dibromo-8-chloro-6,11-dihydro-5H-benzo[5,6]cyclohepta[1,2-b]pyridin-11-yl)-N-[3-(2-oxo-1-pyrrolidinyl)propyl]-3-piperidinecarboxamide], 0.1 µM. The compound `O=C(NCc1cccnc1)C1CCCCN1C1c2ncc(Br)cc2CCc2cc(Cl)cc(Br)c21` (stereo not drawn) [Isomer C3 amide] came in with a concentration for half-maximal inhibition (IC50) of 0.3 µM. That is a sub-micromolar value.
